The text below walks through data of article PMC10073729, “Synthesis, radiolabeling, and evaluation of 68Ga-labeled aminoquinoxaline derivative as a potent PFKFB3-targeted PET tracer” (Frontiers in Chemistry, 2023).

Read-outs that look alike come from different tables or passages of the source.

Assay [1] concerns F2,6BP production in HCT116 cells. The experiment in a line: Cellular inhibition assay: F2,6BP production in glucose-starved, restimulated HCT116 cells. The format is cell-based. Particulars: Homo sapiens, HCT-116, 25 mM glucose restimulation 4 h, triplicate. How it is done:
For the cellular inhibition assay, the protocol used in this section was also from the same literature as the PFKFB3 enzymatic activity assay, with minor modifications ([Boutard et al., 2019]). Briefly, glucose-starved HTC116 cells were pretreated with diluted compounds at different concentrations and restimulated with 25 mM glucose for 4 h to trigger glycolytic flux. Cells were then lysed by NaOH ([…]) under 85°C for 10 min and transferred to a HEPES solution (20 mM) neutralized by acetic acid (1 M) to pH 7.5–8.0. The lysates (equal amounts, normalized to protein level) were reacted in a mixture of α-glycerophosphate dehydrogenase (0.17 U), aldolase (0.083 U), pyrophosphate-dependent fructose-6-phosphate kinase from potato (0.17 U) and triosephosphate isomerase (0.83 U) in Tris (pH 8.0), glucose-6-phosphate (17 mM), fructose-6-phosphate (2.5 mM) and magnesium chloride (5.5 mM) in a total volume of 100 µL. The reaction was induced by the addition of NADH (0.14 mM) under 30°C, and the absorbance at 340 nm was measured 30 min post addition. All absorbances for reaction mixtures for test compounds with different concentrations were recorded and used for IC50 calculations in GraphPad Prism 5.0 software.

Assay [2] has as its target T1, Human Recombinant PFKFB3 Protein (His and GST Tag) (Homo sapiens, UniProt Q16875).
T1 construct: His; GST; purchased SinoBiological
As to the kind of experiment: ADP-Glo-based PFKFB3 enzymatic activity inhibition assay. The format is biochemical. Particulars: triplicate. An excerpt: All regents used in this section were purchased from Sigma, and the Human Recombinant PFKFB3 Protein (His and GST Tag) was purchased from SinoBiological. The ADP-Glo™ Kinase Assay kit was also obtained from Promega.
The PFKFB3 enzymatic activity assay followed an identical procedure used in previously published literature, along with the same regents and materials ([Boutard et al., 2019]).

A further assay concerns PFKFB3. Particulars: 2019, cited from earlier work.
The mark [3] stands for this setting: representative PFKFB3 inhibitors, Figure 1, ref Boyd et al., 2015, Boutard et al., Wang et al., 2020, read-out: IC50 (PFKBF3).

T1 sequence (Q16875 whole entry): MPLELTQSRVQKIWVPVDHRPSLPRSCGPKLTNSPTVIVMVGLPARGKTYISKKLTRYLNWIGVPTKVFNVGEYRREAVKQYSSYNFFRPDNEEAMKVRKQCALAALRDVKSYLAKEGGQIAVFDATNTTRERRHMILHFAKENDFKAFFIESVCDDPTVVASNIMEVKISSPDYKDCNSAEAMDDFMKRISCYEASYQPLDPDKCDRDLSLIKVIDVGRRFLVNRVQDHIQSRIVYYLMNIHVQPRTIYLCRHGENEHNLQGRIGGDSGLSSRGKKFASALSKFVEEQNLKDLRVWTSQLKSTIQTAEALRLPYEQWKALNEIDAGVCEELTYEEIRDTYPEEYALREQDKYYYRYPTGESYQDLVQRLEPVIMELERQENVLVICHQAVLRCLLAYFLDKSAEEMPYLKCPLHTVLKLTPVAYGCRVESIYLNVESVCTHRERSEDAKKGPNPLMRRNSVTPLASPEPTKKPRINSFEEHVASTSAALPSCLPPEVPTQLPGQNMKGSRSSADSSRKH

`Cn1ccc2ccc(-c3cc(Nc4cncc(C(=O)NC5CCCN(C(=O)CCC(C(=O)O)N6CCN(CC(=O)O)CCN(CC(=O)O)CCN(CC(=O)O)CC6)C5)c4)cc4nccnc34)cc21` (centres unmarked) [compound 5, 2,2′,2′′-(10-(1-carboxy-4-(3-(5-((8-(1-methyl-1H-indol-6-yl)quinoxalin-6-yl)amino)nicotinamido)piperidin-1-yl)-4-oxobutyl)-1,4,7,10-tetraazacyclododecane-1,4,7-triyl) triacetic acid]: the half-inhibitory concentration (IC50) in assay [1] was 5300 ± 1400 nM; in assay [2], 12.5 ± 4.5 nM.

On to `Cc1noc(C)c1Cn1nc(C#N)c2cc(Oc3ccc(NC(=O)[C@@H]4CCCN4)cc3)ccc21` [compound 3], for which the IC50 in the assay with PFKFB3 (setting [3]) is 3 nM.

Turning to `CN1CCCC(NC(=O)c2cncc(Nc3cc(-c4ccc5ccn(C)c5c4)c4nccnc4c3)c2)C1` (centres unmarked) [compound 4], the IC50 in assay [1] was 2300 ± 800 nM; with PFKFB3 (ref Boutard et al., read-out: IC50 enzymatic PFKFB3 inhibition (reported)), 2 nM; in assay [2], 6.7 ± 2.3 nM.

As to `Cc1c(S(=O)(=O)Nc2cccc(-c3nnn[nH]3)c2)oc2ccc(C(C)C)cc12` [compound 2], in the assay on PFKFB3 (setting [3]), the 50% inhibitory concentration (IC50) is 80 nM.

In the case of `CC(C)OC(=O)c1cccc(-c2cc(S(=O)(=O)Nc3ccc(C(=O)O)c(O)c3)sc2Cl)c1` [compound 1], the half-maximal inhibitory concentration (IC50) in the assay on PFKFB3 (setting [3]) was 150 nM.

Broadly, the IC50 is the concentration that gives 50% inhibition.
